Measurements from ChEMBL document CHEMBL6092191, “Advancing Cancer Immunotherapy through Engineering New PD-L1 Degraders: A Comprehensive Study from Small Molecules to PD-L1-Specific Peptide-Drug Conjugates” (J Med Chem, 2024).
Calls of active or inactive are those of the source. The rule behind the calls is not given here.

What was measured:
[1] = system: Lewis lung carcinoma cell line; assay: Antitumor activity against Lewis lung carcinoma cells xenografted in C57BL/6 mouse model assessed as decrease in Ki-67 level at 29.5 mg/kg, ip administered daily for 8 days by IHC analysis; type: functional, organism-based; details: time 8.0 day
[2] = Toxicity in C57BL/6 mouse model xenografted with […] cells assessed as damage in spleen at 29.5 mg/kg, ip administered daily for 8 days by H and E staining based analysis; type: organism-based; details: in vivo, 192 h, time 8 day
3T3-L1 = assay: Antiproliferative activity against mouse 3T3-L1 cells at 10 uM incubated for 4 days; type: toxicity, cell-based; details: 3t3-l1, 96 h, time 4 day
[3] = Antiproliferative activity against human HTori-3 cells at 10 uM incubated for 4 days; type: toxicity, cell-based; details: htori-3, 96 h, time 4 day
[4] = Toxicity in C57BL/6 mouse model xenografted with […] cells assessed as change in creatinine level at 29.5 mg/kg, ip administered daily for 8 days; type: organism-based; details: in vivo, 192 h, time 8 day
[5] = system: Lewis lung carcinoma cell line; assay: Antitumor activity against Lewis lung carcinoma cells xenografted in C57BL/6 mouse model at 29.5 mg/kg, ip administered daily for 8 days relative to control; type: functional; details: 192 h, time 8 day, read-out: TGI
Mus musculus = assay: In vivo induction of PD-L1 degradation in […] lung carcinoma cells xenografted in C57BL/6 mouse model at 29.5 mg/kg, ip administered daily for 8 days by IHC analysis; type: functional, organism-based; details: time 8.0 day
[6] = Toxicity in C57BL/6 mouse model xenografted with […] cells assessed as change in BUN level at 29.5 mg/kg, ip administered daily for 8 days; type: organism-based, Blood; details: in vivo, 192 h, time 8 day
HEK-293T = assay: Antiproliferative activity against HEK293T cells at 10 uM incubated for 4 days; type: toxicity, cell-based; details: human, 96 h, time 4 day
[7] = Toxicity in C57BL/6 mouse model xenografted with […] cells assessed as change in ALT level at 29.5 mg/kg, ip administered daily for 8 days; type: organism-based, Blood; details: in vivo, 192 h, time 8 day
[8] = Toxicity in C57BL/6 mouse model xenografted with […] cells assessed as damage in kidney at 29.5 mg/kg, ip administered daily for 8 days by H and E staining based analysis; type: organism-based; details: in vivo, 192 h, time 8 day
[9] = Toxicity in C57BL/6 mouse model xenografted with […] cells assessed as damage in liver at 29.5 mg/kg, ip administered daily for 8 days by H and E staining based analysis; type: organism-based; details: in vivo, 192 h, time 8 day
[10] = molecular target: COP9 signalosome complex subunit 5 (Homo sapiens) (UniProt Q92905); assay: Induction of PD-L1 degradation in human NCI-H460 cells at 10 to 20 uM incubated for 2 days by Western blot analysis; type: cell-based; details: dose 10-20 µM, time 2.0 day
[11] = system: Lewis lung carcinoma cell line; assay: Antitumor T-cell immune response in Lewis lung carcinoma cells xenografted in C57BL/6 mouse model assessed as increase in CD3+ CD8+ infiltration in CD45+ T cells in tumor at 29.5 mg/kg, ip administered daily for 8 days by flow cytometry; type: functional, organism-based; details: time 8.0 day
[12] = system: Lewis lung carcinoma cell line; assay: Antitumor T-cell immune response in Lewis lung carcinoma cells xenografted in C57BL/6 mouse model assessed as decrease in CD3+ CD4+ population in CD45+ T cells in tumor at 29.5 mg/kg, ip administered daily for 8 days by flow cytometry; type: functional, organism-based; details: time 8.0 day
[13] = Toxicity in C57BL/6 mouse model xenografted with […] cells assessed as obvious body weight change at 29.5 mg/kg, ip administered daily for 8 days; type: organism-based; details: in vivo, 192 h, time 8 day
[14] = Toxicity in C57BL/6 mouse model xenografted with […] cells assessed as damage in lung at 29.5 mg/kg, ip administered daily for 8 days by H and E staining based analysis; type: organism-based; details: in vivo, 192 h, time 8 day
[15] = Toxicity in C57BL/6 mouse model xenografted with […] cells assessed as change in AST level at 29.5 mg/kg, ip administered daily for 8 days; type: organism-based, Blood; details: in vivo, 192 h, time 8 day
[16] = system: Lewis lung carcinoma cell line; assay: Antitumor T-cell immune response in Lewis lung carcinoma cells xenografted in C57BL/6 mouse model assessed as increase in ratio of CD8+ to CD4+ T cells in tumor at 29.5 mg/kg, ip administered daily for 8 days by flow cytometry; type: functional, organism-based; details: time 8.0 day
[17] = Toxicity in C57BL/6 mouse model xenografted with […] cells assessed as damage in heart at 29.5 mg/kg, ip administered daily for 8 days by H and E staining based analysis; type: organism-based; details: in vivo, 192 h, time 8 day

COP9 signalosome complex subunit 5 (Homo sapiens), sequence (Q92905 2-334 limits assumed, one chain of several): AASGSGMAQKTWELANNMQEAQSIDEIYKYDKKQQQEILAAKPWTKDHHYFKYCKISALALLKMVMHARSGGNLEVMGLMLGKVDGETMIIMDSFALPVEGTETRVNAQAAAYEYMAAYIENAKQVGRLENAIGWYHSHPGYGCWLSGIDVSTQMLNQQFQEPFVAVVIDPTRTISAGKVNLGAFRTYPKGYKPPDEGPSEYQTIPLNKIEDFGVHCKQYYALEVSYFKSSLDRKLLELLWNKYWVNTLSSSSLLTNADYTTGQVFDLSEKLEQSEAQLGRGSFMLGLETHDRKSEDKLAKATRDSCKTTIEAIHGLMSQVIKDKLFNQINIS

With `COc1cc2c(cc1OC)-c1cc3ccc(OC)c(OCCNC(=O)OCCSSC[C@H](N)C(=O)NCCCCCC(=O)N[C@@H](CC(N)=O)C(=O)N[C@@H](Cc4ccc(O)cc4)C(=O)N[C@@H](CO)C(=O)N[C@@H](CCCCN)C(=O)N4CCC[C@H]4C(=O)N[C@H](C(=O)N[C@@H](CC(=O)O)C(=O)N[C@@H](CCCNC(=N)N)C(=O)N[C@@H](CCC(N)=O)C(=O)N[C@@H](Cc4ccc(O)cc4)C(=O)N[C@@H](Cc4cnc[nH]4)C(=O)N[C@@H](Cc4ccccc4)C(=O)O)[C@@H](C)O)c3c[n+]1CC2.[Cl-]` the Activity [1] was “Active”, the Activity [2] was “Non-toxic” and the Activity (3T3-L1) was “Non-toxic”. The Activity [3] was “Non-toxic”, the Activity [4] was “Non-toxic” and the inhibition in vivo at 29.5 mg/kg [5] was 89%. For the same compound, the Activity (Mus musculus) was “Active”, the Activity [6] was “Non-toxic” and the Activity (HEK-293T) was “Non-toxic”. For the same compound, the Activity [7] was “Non-toxic”, the Activity [8] was “Non-toxic” and the Activity [9] was “Non-toxic”. For the same compound, the Activity [10] was “Active; Comparable To Pmt-O9-1A”, the Activity [11] was “Active” and the Activity [12] was “Active”. The Activity [13] was “Non-toxic”, the Activity [14] was “Non-toxic” and the Activity [15] was “Non-toxic”. For the same compound, the Activity [16] was “Active” and the Activity [17] was “Non-toxic”.
